Measurements as given in PubChem BioAssay (NCI).
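Compound exposure: 48 hours, 5 concentrations, 96-well plates. Here, GI50 denotes the concentration required for 50% inhibition of growth. TGI denotes the concentration required for complete inhibition of growth.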

What was measured:
Experiment in all cases: NCI tumour cell line growth inhibition, 48 h
[1] = system: 786-0 renal
[2] = system: A498 renal
[3] = system: A549 NSCLC
[4] = system: ACHN renal
[5] = system: BT-549 breast
[6] = system: CAKI-1 renal
[7] = system: CCRF-CEM leukemia
[8] = system: COLO 205 colon
[9] = system: DU-145 prostate
[10] = system: EKVX NSCLC
[11] = system: HCC-2998 colon
[12] = system: HCT-116 colon
[13] = system: HCT-15 colon
[14] = system: HL-60(TB) leukemia
[15] = system: HOP-62 NSCLC
[16] = system: HOP-92 NSCLC
[17] = system: HS 578T breast
[18] = system: HT29 colon
[19] = system: IGROV1 ovarian
[20] = system: K-562 leukemia
[21] = system: KM12 colon
[22] = system: LOX IMVI melanoma
[23] = system: M14 melanoma
[24] = system: MALME-3M melanoma
[25] = system: MCF7 breast
[26] = system: MDA-MB-231 breast
[27] = system: MDA-MB-435
[28] = system: MOLT-4 leukemia
[29] = system: NCI-H226 lung
[30] = system: NCI-H23 lung
[31] = system: NCI-H460 lung
[32] = system: NCI-H522 lung
[33] = system: NCI/ADR-RES ovarian
[34] = system: OVCAR-3 ovarian
[35] = system: OVCAR-4 ovarian
[36] = system: OVCAR-5 ovarian
[37] = system: OVCAR-8 ovarian
[38] = system: PC-3 prostate
[39] = system: RPMI-8226 leukemia
[40] = system: RXF 393 renal
[41] = system: SF-268 CNS
[42] = system: SF-295 CNS
[43] = system: SF-539 CNS
[44] = system: SK-MEL-2 melanoma
[45] = system: SK-MEL-28 melanoma
[46] = system: SK-MEL-5 melanoma
[47] = system: SK-OV-3 ovarian
[48] = system: SN12C renal
[49] = system: SNB-19 CNS
[50] = system: SNB-75 CNS
[51] = system: SR leukemia
[52] = system: SW-620 colon
[53] = system: T-47D breast
[54] = system: TK-10 renal
[55] = system: U251 CNS
[56] = system: UACC-257 melanoma
[57] = system: UACC-62 melanoma
[58] = system: UO-31 renal

## O=C1CCC(N2Cc3cc(CNC(=O)C(F)(F)c4ccc(Cl)cc4)ccc3C2=O)C(=O)N1 (centres undefined)
[1]
  GI50: > 100 µM
  TGI: > 100 µM
[2]
  GI50: 8.17 µM
  TGI: > 100 µM
[3]
  GI50: > 100 µM
  TGI: > 100 µM
[4]
  GI50: > 100 µM
  TGI: > 100 µM
[5]
  GI50: 0.237 µM
  TGI: > 74.2 µM
[6]
  GI50: 40.5 µM
  TGI: > 100 µM
[7]
  GI50: < 0.0156 µM
[8]
  GI50: 0.721 µM
  TGI: > 100 µM
[9]
  GI50: > 100 µM
  TGI: > 100 µM
[10]
  GI50: > 100 µM
  TGI: > 100 µM
[11]
  GI50: 14 µM
  TGI: > 100 µM
[12]
  GI50: > 100 µM
  TGI: > 100 µM
[13]
  GI50: 0.511 µM
  TGI: > 100 µM
[14]
  GI50: < 0.01 µM
  TGI: 0.03 µM
[15]
  GI50: 3.02 µM
  TGI: > 100 µM
[16]
  GI50: 0.0741 µM
  TGI: > 100 µM
[17]
  GI50: 1.71 µM
  TGI: > 100 µM
[18]
  GI50: > 100 µM
  TGI: > 100 µM
[19]
  GI50: 1.78 µM
  TGI: > 100 µM
[20]
  GI50: > 96.3 µM
  TGI: > 100 µM
[21]
  GI50: 67.1 µM
  TGI: > 100 µM
[22]
  GI50: > 100 µM
  TGI: > 100 µM
[23]
  GI50: 38.4 µM
  TGI: > 100 µM
[24]
  GI50: 0.105 µM
  TGI: > 27.9 µM
[25]
  GI50: > 100 µM
  TGI: > 100 µM
[26]
  GI50: 0.0679 µM
  TGI: > 100 µM
[27]
  GI50: > 100 µM
  TGI: > 100 µM
[28]
  GI50: 0.0148 µM
[29]
  GI50: 1.75 µM
  TGI: > 100 µM
[30]
  GI50: > 100 µM
  TGI: > 100 µM
[31]
  GI50: > 100 µM
  TGI: > 100 µM
[32]
  GI50: > 66.1 µM
  TGI: > 100 µM
[33]
  GI50: 29.2 µM
  TGI: > 100 µM
[34]
  GI50: > 100 µM
  TGI: > 100 µM
[35]
  GI50: 1.48 µM
  TGI: > 100 µM
[36]
  GI50: > 100 µM
  TGI: > 100 µM
[37]
  GI50: 0.243 µM
  TGI: > 100 µM
[38]
  GI50: 4.71 µM
  TGI: > 100 µM
[39]
  GI50: > 54.7 µM
  TGI: > 100 µM
[40]
  GI50: 19 µM
  TGI: > 100 µM
[41]
  GI50: > 100 µM
  TGI: > 100 µM
[42]
  GI50: > 100 µM
  TGI: > 100 µM
[43]
  GI50: > 100 µM
  TGI: > 100 µM
[44]
  GI50: > 100 µM
  TGI: > 100 µM
[45]
  GI50: > 100 µM
  TGI: > 100 µM
[46]
  GI50: 41.6 µM
  TGI: > 100 µM
[47]
  GI50: > 100 µM
  TGI: > 100 µM
[48]
  GI50: > 100 µM
  TGI: > 100 µM
[49]
  GI50: > 87.1 µM
  TGI: > 100 µM
[50]
  GI50: 0.152 µM
  TGI: > 100 µM
[51]
  GI50: 54.1 µM
  TGI: > 100 µM
[52]
  GI50: 0.11 µM
  TGI: > 100 µM
[53]
  GI50: 0.442 µM
  TGI: > 100 µM
[54]
  GI50: > 100 µM
  TGI: > 100 µM
[55]
  GI50: > 100 µM
  TGI: > 100 µM
[56]
  GI50: > 100 µM
  TGI: > 100 µM
[57]
  GI50: > 100 µM
  TGI: > 100 µM
[58]
  GI50: 0.32 µM
  TGI: > 100 µM
